Experimental data reported in patent US9028887B2, “Method improve spatial memory via pterostilbene administration” (The United States of America, as represented by the …, priority 2007, dated 2015).

Columns and labels:
[1] = test system: weanling male F344 rats; conditions: Suh et al., 2007; cited from earlier work
[2] = test system: M1-transfected COS-7 cells; experiment: Calcium recovery in M1-transfected COS-7 cells after dopamine treatment and oxotremorine-induced depolarization; assay type: cell-based, African green monkey; conditions: 10 μg/ml pre-treatment 45 min, then 1 mM dopamine 4 hours; 750 μM oxotremorine depolarization
Method: COS-7 cells, a cell line derived from African green monkey kidney, were grown in Dulbecco's Modified Eagle's Medium (D-MEM) supplemented with 10% fetal bovine serum (FBS) and containing 100 U/ml penicillin and 100 μg/ml streptomycin sulfate. Twenty four hours prior to transfection, cells were harvested with trypsin, counted, and plated on […] tissue culture plates at 5×10^6 cells/plate. Cells were transiently transfected with rat muscarinic receptor subtype 1 DNA by the DEAE-dextran method. After transfection, cells were incubated 2.5 hours in growth medium containing 80 μM chloroquine to minimize degradation of the DNA. Transfected cells were then maintained in growth medium for 48 hours, harvested with trypsin, plated to coverslips in 35 mm plates for calcium imaging, and incubated overnight.
Dis. 6:403-411, and hereby incorporated by reference. The BB extract and stilbenes were dissolved in growth media and cells were subsequently incubated for 45 minutes at 37° C. with the treated growth medium, followed by dopamine administration for 4 hours. Following these incubations, the cells were washed three times with extract-free growth medium prior to testing.
Calcium imaging was carried out using a Medical Systems Corp. open perfusion micro-incubator (37° C.) with temperature control that was mounted on the stage of a Nikon Eclipse TE200U microscope and illuminated with a fluorescent light source. Transfected cells were loaded with Fura-2/acetoxymethyl ester (2 μM) in loading medium (99% DMEM 1% FES) for 40 minutes at 37° C. with 5% CO2.
Real time analyses of calcium flux prior to and following 750 μM oxotremorine-induced depolarization were then carried out using Simple PCI software (Compix, Inc. Mars, Pa.). Response and recovery were then determined for each sample. […] Recovery was determined by assessing the time (within 300 sec) for the Ca^2+ levels to return to 20% of the increase following depolarization in the cells that responded. Data was analyzed by Kruskal-Wallis one-way analysis of variance and Mann-Whitney U tests.

[3] = test system: striatal slices; experiment: Oxotremorine enhancement of K+-evoked dopamine release from striatal slices of diet-fed rats; assay type: in vivo, rat; conditions: for dopamine release (oxotremorine-enhanced striatal K+-ERDA), H2O2-treated vs non-H2O2-treated: 50 μM H2O2, 500 μM oxotremorine
Excerpt: The muscarinic enhancement of K^+-evoked dopamine release (K^+-ERDA) from superfused striatal slices is an indicator of receptor sensitivity and striatal function and is sensitive to aging and oxidative stress as disclosed in Joseph et al., 1988. Brain Res., 454:140-8: Joseph et al., 1988. Brain Res., 454:149-55; Joseph J., et al., 1990. Brain Res., 537:40-48; Joseph et al., 1996. Free Radic. Biol. Med., 20: 821-30 and herein incorporated by reference. Additionally, muscarinic enhancement of dopamine release is sensitive to dietary supplementation as disclosed in Joseph et al., 1998. J. Neurosci., 18: 8047-8055; Joseph et al., 1999. J. Neurosci., 19: 8114-8121; Youdim et al., 2000. Nutr Neurosci., 3: 383-97; Shukitt-Hale et al., 2005. Age., 27: 49-57; Shukitt-Hale et al., 2006. Nutrition, 22: 295-302 and herein incorporated by reference. The protective capacity of the striatal tissue obtained from the control and supplemented groups were assessed by examining differences in the oxotremorine-enhancement of striatal K^+-ERDA. Dopamine release was conducted 2-3 weeks following behavioral testing on freshly dissected and cross cut (300 μm, McIlwain tissue chopper) striatal slices from subject brains that were fed a high dose, low dose and control diet. The slices were placed in small glass vials containing modified Krebs-Ringer basal release medium (BRM) that had been bubbled for 30 min with 95% O2/5% CO2 and containing 21 mM NaHCO3, 3.4 mM glucose, 1.3 mM NaH2PO4, 1 mM EGTA, 0.93 mM MgCl2, 127 mM NaCl and 2.5 mM KCl (low KCl) (pH 7.4). Half of the tissue was treated with 50 μM […] to assess the effect of diet under conditions of oxidative stress. […] Following this equilibration period, the medium was switched to one containing (in mM) KCl 30 (high KCl), CaCl2.2H2O 1.26 (in place of EGTA), NaCl 57, and 0 or 500 μM oxotremorine and then the enhancement of K^+-ERDA was assessed. Dopamine release was quantitated by HPLC coupled to electrochemical detection and expressed as pmoles/mg protein as determined by the Lowry procedure.

[4] = Pterostilbene in subject hippocampal tissue by GC-MS; assay type: in vivo, rat
Method: Hippocampal brain tissue was extracted from subjects that were euthanized 2-3 weeks following Morris Water Maze testing. The tissue samples were stored at −80° C. and thawed in ice prior to extraction. Tissues were homogenized in 500 μL of phosphate buffer (pH 7.4) then centrifuged (7000 g, 4° C., 15 min). The supernatant was collected and homogenization was repeated. The combined supernatant was extracted with ethyl acetate (500 μL×2). The ethyl acetate extract was dried under a stream of nitrogen.
The dried extract was treated with 30 μL of N,O-bis[trimethylsilyl]trifluoroacetamide:dimethylformamide (BSTFA:DMF, 1:1; Pierce Biotechnology, Inc., Rockford, Ill.) and heated at 70° C. for 40 min. The derivatized sample was used for analysis of pterostilbene by gas chromatography-mass spectrometry (GC-MS). GC-MS was performed on a JEOL GCMate II Instrument (JEOL USA Inc., Peabody, Mass.) using as a J&W DB-5 capillary column (0.25 mm internal diameter, 0.25 μm film thickness, 30 m length; Agilent Technologies, Foster City, Calif.). […] The carrier gas was ultrahigh purity helium, at 1 mL/min flow rate. […] Pterostilbene was determined and quantified from a reconstructed ion chromatogram using m/z 328, 313, 297 and 147. Quantitation was performed from calibration curve of a standard sample of pterostilbene (retention time, 12.5 min). […]

COc1cc(/C=C/c2ccc(O)cc2)cc(OC)c1 [pterostilbene, trans-3,5-dimethoxy-4′-hydroxystilbene]
azoxymethane-induced colonic aberrant crypt foci growth [1]: suppressed azoxymethane-induced colonic aberrant crypt foci growth | protection against dopamine-induced decreases in Ca2+ Recovery [2]: protected against the dopamine-induced decreases in Recovery | dopamine release (oxotremorine-enhanced striatal K+-ERDA) among diet groups ([3]; basal conditions (no H2O2), low and high dose vs control diet, p>0.05): no differences among the diet groups | dopamine release (oxotremorine-enhanced striatal K+-ERDA), H2O2-treated vs non-H2O2-treated ([3]; high dose diet 0.016%): no differences were seen following H2O2 treatment | dopamine release (oxotremorine-enhanced striatal K+-ERDA), H2O2-treated vs non-H2O2-treated ([3]; low dose diet 0.004%): no differences were seen following H2O2 treatment | hippocampal pterostilbene ([4]; high dose diet 0.016% (10 mg/kg), 12-13 weeks on diet): 1.352±0.465 ng/tissue sample | hippocampal pterostilbene detectability ([4]; low dose diet 0.004% (2.5 mg/kg)): only detectable in the high dose pterostilbene group
